How the values were obtained:
HepG2 cells = assay: In vitro inhibition of proliferation of HepG2 cells, CellTiter-Glo; assay type: cell-based, human; details: 3 days incubation, top concentration 30 μM
From the text: CellTiter-Glo Analysis Kit (Promega) was used for the detection of the inhibitory effect of the present compound on the proliferation of HepG2 cells. The CellTiter-Glo detection method uses luciferase, which requires ATP for its reaction and luminescence. The intensity of the luminescent signal depends on the amount of ATP, and the amount of ATP depends on the number of living cells. Said analysis only requires that ATP in living cells is converted to luminescence by UltraGlo™ luciferase after treatment with the tested drug, so that the inhibitory effect of the compound is detected based on the luminescence intensity, and its IC50 value is calculated.
a. HepG2 cells were purchased from the American type culture collection (ATCC) resource bank. Cells were cultured in MEM (GIBCO) containing 10% fetal bovine serum, penicillin (100 units/mL) and streptomycin (100 μg/mL), and then incubated in a 37° C. incubator containing 5% carbon dioxide, and passaged once every 2 to 3 days.
b. On the first day, 800 HepG2 cells were inoculated in each well of a 384-well cell culture plate, and then incubated in a 37° C. incubator containing 5% carbon dioxide.
c. On the second day, the medium was changed to that containing the compound. The concentrations of the compound were 30 μM, 10 μM, 3.33 μM, 1.11 μM, 0.37 μM, 0.123 μM, 0.0411 μM, 0.0137 μM, 0.00457 μM and 0.00152 μM. The final concentration of DMSO was 0.3% (v/v). The plate was incubated for 3 days in a incubator containing 5% carbon dioxide at 37° C. The reaction system with paclitaxel at a final concentration of 1 μM was used as positive control; the reaction system with no compound but DMSO at a final concentration of 0.3% was used as negative control.
d. […]
f. The chemiluminescence signal value was read with Envision 2104 instrument.
The average value of the positive and negative control well and the standard deviation were calculated. The percentage inhibition rate was calculated according to the following formula: 100×[1−(compound−average value of positive control)/(average value of negative control−average value of positive control)]. […]

ACC2 = ACC2 (Homo sapiens, UniProt O00763); assay: In vitro inhibition of ACC2 activity, ADP-Glo Kinase Analysis; assay type: biochemical; details: 1.1 nM ACC2, 20 μM acetyl-CoA, 15 μM ATP
From the text: ADP-Glo™ Kinase Analysis Kit (Promega) is used for the in vitro analysis of the inhibitory effect of the present compound on ACC1 or ACC2. ADP-Glo™ Kinase Analysis is a kinase detection analysis of luminescence method. ADP is produced in the process of catalyzing the substrate by ACC. ADP is converted into ATP which is then converted into light by Ultra-Glo™ luciferase. ADP is quantified by detecting the light signal, thus the enzyme activity can be measured by quantification of the ADP amount produced during the enzyme reaction. The analysis is carried out in two steps: in the first step, after the kinase reaction, a portion of ADP-Glo™ reagent equal in volume to the kinase reaction system is added to terminate the reaction and consume the remaining ATP; in the second step, a kinase detection reagent is added, which not only converts ADP into ATP, but also uses a coupled luciferase/luciferin reaction to detect newly synthesized ATP.
a. 10 mM compound stock solution (the present compound was dissolved in 100% DMSO to prepare the 10 mM stock solution) was diluted 50-fold to 200 μM with 100% DMSO, and then diluted in equal proportions (1:3) in a 96-well dilution plate (249944, Nunc). The gradient concentrations of the compound were 200 μM, 66.67 μM, 22.22 μM, 7.41 μM, 2.47 μM, 0.823 μM, 0.274 μM, 0.0914 μM, 0.0305 μM, 0.0102 μM, 0.00339 μM and 0.00113 μM.
b. 4.5 μL ACC1 working solution (BPS bioscience) (2.22 nM) was added to each well of a 384-well test plate (6007290, Perkin Elmer).
c. 0.5 μL of the serially diluted compound (prepared in step a) was added to each well of the 384-well test plate, which was centrifuged at 1000 rpm for 1 min and then incubated at room temperature for 15 min. […]
g. The chemiluminescence signal was detected with Perkin Elmer EnVision 2104. […]
The average value of the positive and negative control well and the standard deviation were calculated. The inhibition percentage was calculated according to the following formula: 100×[1−(compound−average value of positive control)/(average value of negative control-average value of positive control)]. […]

Chain of ACC2 (O00763 whole entry): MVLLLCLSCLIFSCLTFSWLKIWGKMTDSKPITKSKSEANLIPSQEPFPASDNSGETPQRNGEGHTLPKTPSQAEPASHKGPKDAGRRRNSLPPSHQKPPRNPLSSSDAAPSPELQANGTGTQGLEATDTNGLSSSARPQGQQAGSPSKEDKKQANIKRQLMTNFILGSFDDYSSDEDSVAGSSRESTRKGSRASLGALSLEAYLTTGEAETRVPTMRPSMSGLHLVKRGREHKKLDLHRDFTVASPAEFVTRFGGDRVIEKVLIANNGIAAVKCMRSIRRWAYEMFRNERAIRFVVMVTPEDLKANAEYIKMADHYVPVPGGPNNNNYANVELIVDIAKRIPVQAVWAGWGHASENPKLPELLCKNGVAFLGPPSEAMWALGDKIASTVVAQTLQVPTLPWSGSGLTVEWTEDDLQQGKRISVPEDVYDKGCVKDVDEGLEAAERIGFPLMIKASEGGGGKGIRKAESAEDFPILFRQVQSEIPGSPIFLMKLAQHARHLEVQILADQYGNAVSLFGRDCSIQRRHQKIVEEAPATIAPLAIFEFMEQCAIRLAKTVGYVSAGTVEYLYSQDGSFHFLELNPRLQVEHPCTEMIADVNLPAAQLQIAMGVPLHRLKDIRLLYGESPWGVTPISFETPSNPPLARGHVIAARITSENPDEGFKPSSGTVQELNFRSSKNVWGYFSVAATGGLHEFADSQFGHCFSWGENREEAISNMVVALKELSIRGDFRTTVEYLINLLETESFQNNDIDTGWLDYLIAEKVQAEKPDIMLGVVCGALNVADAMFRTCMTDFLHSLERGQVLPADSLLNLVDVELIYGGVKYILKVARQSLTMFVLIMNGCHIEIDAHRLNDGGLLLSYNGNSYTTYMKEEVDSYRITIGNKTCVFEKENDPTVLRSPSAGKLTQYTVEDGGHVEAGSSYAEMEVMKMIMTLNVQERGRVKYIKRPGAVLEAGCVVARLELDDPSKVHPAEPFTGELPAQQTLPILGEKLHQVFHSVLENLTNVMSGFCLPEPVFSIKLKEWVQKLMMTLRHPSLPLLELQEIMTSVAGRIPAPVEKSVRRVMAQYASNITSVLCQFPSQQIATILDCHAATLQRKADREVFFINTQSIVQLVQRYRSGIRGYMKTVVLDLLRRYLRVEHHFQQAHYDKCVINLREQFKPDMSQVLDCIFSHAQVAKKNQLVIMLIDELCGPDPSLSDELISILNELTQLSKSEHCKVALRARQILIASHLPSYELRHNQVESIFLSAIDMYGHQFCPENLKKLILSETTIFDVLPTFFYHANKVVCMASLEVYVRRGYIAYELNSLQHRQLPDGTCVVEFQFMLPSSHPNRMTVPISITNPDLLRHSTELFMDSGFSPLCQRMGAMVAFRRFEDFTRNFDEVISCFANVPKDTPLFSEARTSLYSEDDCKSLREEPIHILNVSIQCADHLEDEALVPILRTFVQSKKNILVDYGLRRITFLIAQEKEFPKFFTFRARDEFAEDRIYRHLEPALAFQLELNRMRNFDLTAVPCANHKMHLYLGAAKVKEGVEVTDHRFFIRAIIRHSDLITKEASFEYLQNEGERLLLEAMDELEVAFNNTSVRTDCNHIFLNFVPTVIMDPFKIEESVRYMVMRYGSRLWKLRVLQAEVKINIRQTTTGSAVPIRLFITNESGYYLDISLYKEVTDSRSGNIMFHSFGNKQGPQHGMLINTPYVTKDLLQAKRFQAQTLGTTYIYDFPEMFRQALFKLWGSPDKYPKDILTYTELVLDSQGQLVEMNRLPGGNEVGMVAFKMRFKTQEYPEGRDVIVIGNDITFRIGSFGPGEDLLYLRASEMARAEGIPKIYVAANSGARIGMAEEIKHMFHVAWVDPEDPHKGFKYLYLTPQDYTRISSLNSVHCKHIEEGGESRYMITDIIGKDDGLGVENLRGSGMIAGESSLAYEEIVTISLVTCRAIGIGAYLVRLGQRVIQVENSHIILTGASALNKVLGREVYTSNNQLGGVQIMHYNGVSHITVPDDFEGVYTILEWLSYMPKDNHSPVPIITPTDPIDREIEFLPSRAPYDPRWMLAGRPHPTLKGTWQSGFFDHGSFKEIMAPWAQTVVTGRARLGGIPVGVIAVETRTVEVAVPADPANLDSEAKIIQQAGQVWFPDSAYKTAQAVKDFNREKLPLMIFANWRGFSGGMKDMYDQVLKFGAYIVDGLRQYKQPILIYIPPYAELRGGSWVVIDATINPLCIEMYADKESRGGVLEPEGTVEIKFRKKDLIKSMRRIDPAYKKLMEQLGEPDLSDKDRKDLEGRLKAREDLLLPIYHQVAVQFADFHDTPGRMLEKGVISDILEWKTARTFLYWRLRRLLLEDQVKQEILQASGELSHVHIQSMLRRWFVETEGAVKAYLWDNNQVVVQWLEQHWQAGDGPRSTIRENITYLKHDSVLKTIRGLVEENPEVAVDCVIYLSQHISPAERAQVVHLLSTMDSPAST

Row | Structure (SMILES) | IC50 (HepG2 cells; Homo sapiens, HepG2, 72 h) [µM] | IC50 (ACC2) [nM] | other results
1 | COc1ccccc1C(CN1C(=O)C2(CCC(C(=O)O)C2)C(=O)c2c1sc(-c1ncco1)c2C)OC1CCOCC1 (mixture of isomers) [Compound 5x, 7′-(2-(2-methoxyphenyl)-2-((tetrahydro-2H-pyran-4-yl)oxy)ethyl)-3′-methyl-2′-(oxazol-2-yl)-4′,6′-dioxo-6′,7′-dihydro-4′H-spiro[cyclopentane-1,5′-thieno[2,3-b]pyridine]-3-carboxylic Acid] | > 30 | – | –
2 | COc1ccccc1C(CN1C(=O)C2(CCC(C(=O)O)C2)C(=O)c2c1sc(-c1ncco1)c2C)OC1CCOCC1 (mixture of isomers) [Compound 5y, 7′-(2-(2-methoxyphenyl)-2-((tetrahydro-2H-pyran-4-yl)oxy)ethyl)-3′-methyl-2′-(oxazol-2-yl)-4′,6′-dioxo-6′,7′-dihydro-4′H-spiro[cyclopentane-1,5′-thieno[2,3-b]pyridine]-3-carboxylic Acid] | – | – | IC50 (HepG2 cells): > 30 µM
3 | COc1ccccc1C(CN1C(=O)C2(CC(C(=O)O)C2)C(=O)c2c1sc(-c1ncco1)c2C)OC1CCOCC1 (mixture of isomers) [Compound 8, 7′-(2-(2-methoxyphenyl)-2-((tetrahydro-2H-pyran-4-yl)oxy)ethyl)-3′-methyl-2′-(oxazol-2-yl)-4′,6′-dioxo-6′,7′-dihydro-4′H-spiro[cyclobutane-1,5′-thieno[2,3-b]pyridine]-3-carboxylic Acid] | > 30 | – | –
4 | COc1ccccc1C(CN1C(=O)C2(CC(C(=O)O)C2)C(=O)c2c1sc(-c1ncco1)c2C)OC1CCOCC1 (single isomer, unassigned) [Compound 8d, 7′-(2-(2-methoxyphenyl)-2-((tetrahydro-2H-pyran-4-yl)oxy)ethyl)-3′-methyl-2′-(oxazol-2-yl)-4′,6′-dioxo-6′,7′-dihydro-4′H-spiro[cyclobutane-1,5′-thieno[2,3-b]pyridine]-3-carboxylic Acid] | – | < 10 | –

More lines, main results first:

Row | IC50 (HepG2 cells; Homo sapiens, HepG2, 72 h) [µM] | IC50 (ACC2) [nM] | Structure (SMILES) | other results
5 | – | < 10 | COc1ccccc1C(CN1C(=O)C2(CCC(C(=O)O)C2)C(=O)c2c1sc(-c1ncco1)c2C)OC1CCOCC1 (single isomer, unassigned) [Compound 5b, 7′-(2-(2-methoxyphenyl)-2-((tetrahydro-2H-pyran-4-yl)oxy)ethyl)-3′-methyl-2′-(oxazol-2-yl)-4′,6′-dioxo-6′,7′-dihydro-4′H-spiro[cyclopentane-1,5′-thieno[2,3-b]pyridine]-3-carboxylic Acid] | –
6 | – | < 10 | COc1ccccc1[C@H](CN1c2sc(-c3ncco3)c(C)c2C(=O)[C@]2(C[C@H](C(=O)O)C2)C1=O)OC1CCOCC1 [Compound 8c, 7′-(2-(2-methoxyphenyl)-2-((tetrahydro-2H-pyran-4-yl)oxy)ethyl)-3′-methyl-2′-(oxazol-2-yl)-4′,6′-dioxo-6′,7′-dihydro-4′H-spiro[cyclobutane-1,5′-thieno[2,3-b]pyridine]-3-carboxylic Acid] | –

From patent US20220041616A1, “SPIRO COMPOUND AND MEDICAL USES THEREOF” (The National Institutes of Pharmaceutical R&D Co., Ltd., priority 2018, published 2022)
